Type in all cases: cell-based
Test [1] concerns 5-HETE biosynthesized by glycogen-stimulated polymorphonuclear leucocytes (PMNs). Nature of the test: Hydroxyacid Profile Assay (HPA): inhibition of 5-HETE synthesis in glycogen-elicited rabbit PMNs. The settings on record: Oryctolagus cuniculus, Leucocyte. On the procedure: As previously noted 5-HETE biosynthesis serves as a marker for arachidonic acid metabolism via the 5-lipoxygenase pathway which produces (poly)hydroxyeicosatetraenoic acids and the potent bronchoconstrictor and vasoactive leukotrienes LTC4, LTD4 and LTE4.
Buffer A (8.70 g NaCl; 0.27 g KCl; 0.42 g Na2 HPO4; 0.76 g KH2 PO4; and 1.00 g dextrose per liter H2 O; pH 7.0) (0.325 ml) is introduced into each of a battery of screwtop culture tubes. Then, a solution of a compound (0.100 ml) to be assayed is dispensed into individual tubes. Assays are performed in duplicate at 100 μM and 10 μM concentrations. Control tubes receive Buffer A (0 100 ml) in lieu of compound. Next, rabbit PMNs (2×10^7 cells/tube; 4×10^7cells/ml) (0.500 ml) are added to each tube. The rabbit PMN's used are elicited with glycogen and made into a preparation substantially as described by F. Hirata. et al (1979) Proc. Natl. Acad. Sci. USA, 76, 2640-2643. The tubes are vortexed and preincubated in a shaking 37° C. water bath for 15 minutes.
Thereafter, the tubes are removed from the water bath and calcium ionophore solution (400 μg/ml A-23187; Sigma Chemical Co., St. Louis, Mo.) (0.025 ml), ^14 C-arachidonic acid (0.25 μCi in 0.025 ethanol; New England Nuclear Products, Boston, Mass.) (0.025 ml) and calcium chloride solution (CaCl2.2H2 O ); 105.8 mg/10 […]) (0.025 ml) are added in that order. The tubes are vortexed and returned to the water bath for 30 minutes. The reaction is then terminated by the addition of HCl (0.8N, 0.025 ml).
Extraction and concentration of ^14 C-labeled 5-HETE is performed as follows. First, solution containing 2 parts ethyl acetate, 3 parts CH2 Cl2 and 0.01 ml unlabeled arachidonic acid is added (5.01 ml) to each tube. The tubes are capped and briefly vortexed. The contents of each tube is poured into a polypropylene column fitted with a porous polyethylene disc and Whatman phase separation filter paper. The organic phase is collected by gravity filtration into a conical centrifuge tube, While the aqueous phase is retained in the column by the phase separation paper. Each culture tube is rinsed once with the EtOAc:CH2 Cl2 solution (1.0 ml) and the wash added to the column. The organic phase is concentrated to (0.5 ml) using a Savant Speed Vac concentrator (Savant Instruments, Inc., Hicksville, N.Y.).
After concentration of the organic phase, the tubes are vortexed and stored covered on ice. An aliquot (0.01 ml) is then removed for liquid scintillation counting in a Beckman LS7500 Liquid Scintillation Counter (Beckman Instruments Corp., Fullerton, Calif.). Based on the count, the number of μl containing 1×10^5 cpm is calculated. This volume is applied to a silica gel covered glass plate in a 10 mm streak. The remaining fluid in the tube is measured via syringe and noted.
The TLC plate is placed in a chromatography chamber containing the following solvent system: CHCl3 :MeOH:HOAc:H2 O (v/v;90: 9:1:0.65). The plate is then air dried and counted on a Berthold Linear TLC Analyzer (Berthold Instruments, Inc., Pittsburgh, Pa.) for 30 minutes per lane if a dose response curve had been run, or for 5 min per lane if drug screening had been done. The integrated area of the 5-HETE band for each compound is converted to percent of control and analyzed. The percent inhibition at 100 μM compound concentration and the concentration (μM) which produces a 50% inhibition of 5-HETE synthesis (IC50), are determined for those compounds described in Examples 1-36, and are reported in Table 1 .

Test [2] concerns guinea pig ileal strips. Kind of test: Modified Schultz-Dale Assay: inhibition of antigen-induced anaphylactic contraction of passively sensitized ileal strips. The settings on record: Cavia porcellus; for IC50: value in parentheses. On the procedure: In the classic Schultz-Dale assay, guinea pigs are sensitized with a known immunogen or passively sensitized with guinea pig antiserum to the immunogen, strips of ilea are recovered, and the extent of their contraction in response to a challenge exposure to the same antigen is observed as a measure of anaphylactic response. The experiments described here follow this same procedure while exposing the ileal strips to test compound before exposure to antigen challenge (preincubation) and, in some strips, also after antigen challenge (postincubation).
The male Hartley strain guinea pigs (450-650 g) whose ilea are used in this Schultz-Dale assay are passively sensitized with IgE antiovalbumin antiserum as follows. The antiserum is developed in another group of similar guinea pigs as described in Graziano, et al., J. Immunol. 127:1067-1070 (1981) and pooled. The test animals are then each passively sensitized by subcutaneous injection of the pooled antiserum (1 ml).
About 2-7 days after sensitization, the guinea pigs are sacrificed and the terminal ilea are removed. They are cut into strips (6 cm) and positioned in tissue baths (5 ml) of Tyrode's solution with atropine (1 μg/ml) at 37° C. One end of each strip is fixed to an immobile post and the other movably mounted to a Grass Ft. 0.03 linear force displacement transducer and a Grass Model 7 polygraph. The tension is set (at 1 gram) and the tissue is allowed to equilibrate (10 minutes). Tissue viability is tested by establishing a consistent response to histamine (0.5 μg/ml). After several histamine-induced contractions, mepyramine (1 μg/ml) is added to inhibit any contractions due to the anaphylactic release of endogenous histamine.
A minimum of 3 animals are used for each compound tested and, of the 6 strips from each animal, 2 strips are incubated (preincubation) with a test compound (final concentration 75 μM), 2 with an appropriate reference standard (BW-755C at 75 μM) and 2 with saline solution (control) for a predetermined period (5 minutes). After this initial incubation period, ovalbumin (100 μg/ml) is added to each bath and the resulting anaphylactic contraction measured. The data are recorded as of tension produced by the tissue in excess of the 1 gram tension that was initially set. At the peak of the contraction, a dose of the same test compound (75 μM) is added (postincubation) to one control strip and reference standard (FPL-55712 at 1.9 μM). The strips are monitored (1 minute) and any effect on the established contraction is recorded as described above.
Two types of data are derived from the above protocol. First, pre-antigen inhibition (prechallenge) is expressed as the percent inhibition in each of the strips preincubated with test compound measured against the averaged contractions of the two control strips. Prechallenge inhibition by the reference standard is also determined in each experiment as a positive control. The reference used consistently gives 60-80% inhibition. Second, post-antigen inhibition (postchallenge) is determined by measuring the decrease in anaphylactic contraction of a control strip produced by adding either a test compound or standard at the peak of the contraction. The reference used consistently gives 70-90% inhibition. The data in each experiment, therefore, consists of 2 prechallenge and 1 postchallenge value for both test compound and standard.

In test [3] the test system is guinea pig ileal strips. The description is as above. The settings on record: Cavia porcellus, **tested at 20 μg/ml.
Test [4] deals with 5-HETE biosynthesized by glycogen-stimulated polymorphonuclear leucocytes (PMNs). Kind of test: Hydroxyacid Profile Assay (HPA): inhibition of 5-HETE synthesis in glycogen-elicited rabbit PMNs. The settings on record: Oryctolagus cuniculus, Leucocyte, read-out: Percent Inhibition; for inhibition at 50 µM: **tested at 50 μM.
Setting [5] is: added at peak of contraction after antigen, read-out: Postchallenge mean percent inhibition.
Setting [6] is: preincubation before ovalbumin antigen, read-out: Prechallenge mean percent inhibition.

The structures appear in SMILES notation. Where two headings read alike, the source gives them in different places.

Regarding `CCCCCc1ccc(C(=O)CCCCC(=O)O)cc1` [Example 2, 5-(4-n-Pentylbenzoyl)pentanoic acid], the inhibition at 100 µM in test [1] (100 μM, 5-HETE synthesis, read-out: Percent Inhibition (100 μM)) was found to be 59%. For the same molecule, the half-inhibitory concentration (IC50) in test [1] (read-out: IC50 (50% inhibition of 5-HETE synthesis)) is 70 µM; in test [2] (added at peak of contraction after antigen, read-out: Postchallenge IC50), > 75 µM; in test [2] (preincubation before ovalbumin antigen, read-out: Prechallenge IC50) it was 35 µM. In addition, the inhibition at 20 µg/mL in test [3] (setting [5]) was determined as 58%; in test [3] (setting [6]), 81%.

In the case of `CCCCCCCc1ccc(C(=O)c2ccc(C(=O)O)cc2)cc1` [Example 14, 4-(4-n-Heptylbenzoyl)benzoic acid], the inhibition at 50 µM in test [4] was determined as 87%. Also, the figures for the inhibition at 75 µM in test [2] (setting [5]) and in test [2] (setting [6]) were 16% and 44%, respectively.

As to `CCCCCCCc1ccc(C(=O)CCCCCC(=O)O)cc1` [Example 20, 6-(4-n-Heptylbenzoyl)hexanoic acid], the inhibition at 50 µM in test [4] came out at 60%. Besides, the inhibition at 75 µM turned out to be 3% in test [2] (setting [5]) and 57% in test [2] (setting [6]).

Turning to `O=C(O)CCCC(=O)c1ccccc1` [Example 22, 4-Benzoylbutanoic acid, reference compound], the inhibition at 1000 µM in test [4] (at 1000 μM) amounted to 0%. In addition, the inhibition at 20 µg/mL was determined as 11% in test [3] (setting [5]) and 0% in test [3] (setting [6]).

For the origin of these results see patent US5504244A, “Alkylarylketo acids” (Boehringer Ingelheim Pharmaceuticals, Inc., priority 1993, dated 1996).
